Data set [1] addresses A. fumigatus SglA (Aspergillus fumigatus, UniProt Q4WXA7). As to the kind of experiment: Ergosterol 3β-D-glucoside (ErgGlc) hydrolysis by SglA, ergosterol quantified by HPLC. In kind it is biochemical. Here is the method: We assessed the potential inhibition of SglA enzymatic activity toward ErgGlc by the seven derivatives at concentrations of 0.1, 1, 10, and 100 μM.
A 50-μL volume of wild-type Af SglA containing 10 ng of protein (0.11 pmol) and 50 μL of mixed micelles of lipid and Triton X-100 in 50 mM sodium acetate buffer (pH 5.5) with 150 mM NaCl, 5 mM βME, and 5 mM DTT were mixed and incubated at 37°C for 20 min (ErgGlc; Avanti Polar Lipids). After the incubation period, each reaction was quenched with a 2:1 chloroform-methanol solution, and the organic phase was collected and dried. Then, the lipid content was resuspended in […] methanol and analized by HPLC using Agilent 1260 Infinity II (Agilent Technologies). Total ErgGlc and ergosterol were detected at 282 nm on a C8 column with a flow rate of 0.5 mL/min in methanol-water (90:10) buffered with 1 mM ammonium formate and 0.2% formic acid.

Data set [2] concerns human lung epithelial cancer cell line A549. The settings on record: 24 h. Here is the method:
The cells were maintained in Dulbecco’s modified Eagle medium (DMEM) containing 10% fetal bovine serum (FBS) and 1% penicillin-streptomycin. At passage 11, 10^5 cells were transferred into each well of 96-well plates and cultured for 18 to 24 h to allow the cells to adhere to the well surface. Next, the medium was removed, and fresh medium containing the selected compounds at concentration range of 1 to 512 μM was added to the wells. Controls with equivalent serial concentrations of DMSO were also evaluated and compared with a control without DMSO. The plate was incubated at 37°C with 5% CO2. After 24 h, the supernatant was removed and 50 μL of 5 mg/mL 3-(4,5-dimethylthiazol-2-yl)-2,5-diphenyltetrazoliumbromide (MTT) solution in PBS was added to each well. The plates were incubated for an additional 4 h, and the formazan crystals formed inside the cell were dissolved by adding 50 μL DMSO. Next, the absorbance was measured at 570 nm, and the calculated LD50 was divided by the IC50 of each hit in order to determine the SI of each compound.

Data set [3] deals with wild-type Af. As to the kind of experiment: Ergosterol 3-β-D-glucoside accumulation in live cells (LC-MS). In kind it is cell-based, Aspergillus fumigatus. As to conditions: 48 h; for ErgGlc accumulation versus control (untreated wild-type Af): 100 and 500 μM. Here is the method:
Wild-type Af ΔKu80pyrG1a and the mutant Δsgla strain were cultivated in yeast extract-glucose medium (YAG) (2% [wt/vol] glucose, 0.5% [wt/vol] yeast extract, 1× trace elements, 1× amino acid solution, 2% [wt/vol] bacteriological agar) for 48 h at 37°C. High-nitrate salts, trace elements, and amino acid solutions were prepared as previously described ([37]). The medium was supplemented with 1.2 g/L of uracil and uridine (UU), generating YAG+UU medium when the strain ΔKu80pyrG1a was used. After that, the a conidial suspension in water was obtained, and a pellet with 1 × 10^7 conidia was treated in minimal medium broth pH 6.5 (MM or MM+UU) (1% [wt/vol] glucose, 1× high-nitrate salts, 1× trace elements) for 48 h at 37°C under agitation, with the hits selected, according to the toxicity criteria, at various concentrations. […] After that, the resultant hyphal pellet was used for lipid extraction. Then, the total lipid was extracted as described by Singh et al. ([39]). The dried samples were resuspended in 2:1 chloroform-methanol for liquid chromatography-mass spectrometry (LC-MS) analysis. A standard ErgGlc from Avanti Polar Lipids was used as a control for the calibration curve. Data were normalized to the total inorganic phosphate content in the sample.

For data set [4], the system named is wild-type Af. As to the kind of experiment: Filamentation assay (hyphal length). In kind it is cell-based, Aspergillus fumigatus. As to conditions: 12 h. As for the experimental part: To evaluate hyphal growth, conidial suspensions of the Af wild-type strain ΔKu80pyrG1a and the Δsgla and Δsgla+SGLA strains were obtained as described above. Then, the assay conditions were performed as previously described by Fernandes et al. ([16]). For that, 1 × 10^5 conidia of strain ΔKu80pyrG1a were inoculated onto a glass-bottom dish containing 2 mL of MM or MM+UU with and without the experimental compounds in various concentrations and grown at 37°C for 10 to 12 h. MM broth without the compounds were used for the mutant and the reconstituted strains. The living hyphae growing attached to the glass were analyzed by differential inference contrast (DIC) microscopy using a Zeiss Observer D.1 microscope, and the hyphal length was measured using ImageJ software.

The test system of data set [5] is Af wild-type strain. As to the kind of experiment: Lung fungal burden quantification by qPCR. In kind it is in vivo, CBA/J mice. The settings on record: hit B 20, hit C 60, B7 5 mg/kg/day intraperitoneally. As for the experimental part:
Lung fungal burden was assessed by the determination of the amplification of fungal 18S DNA by qPCR. The lungs of euthanized mice were aseptically removed and immediately frozen in liquid nitrogen. Genomic DNA extraction was carried out as previously described by Malavazi and Goldman ([40]) with modifications. Previous to the genomic DNA extraction, the lungs were lyophilized for 2 to 3 days, ground using 2-mm glass beads, resuspended in 1 mL of lysis buffer, and vortexed thoroughly. One milliliter of phenol-chloroform–isoamyl alcohol (25:24:1), stabilized and saturated with 100 mM Tris-EDTA to pH 8.0 (Sigma-Aldrich), was added, and the mixture was vortexed for 10 min to extract nucleic acid. The mixture was centrifuged, and the aqueous phase was collected, and the genomic DNA was precipitated with 500 μL isopropanol. The DNA pellet was washed with 500 μL cold 70% ethanol and air dried, and the DNA pellet was resuspended in 100 μL of DNase-free water. The primers Fungal 18S 5′ UTR fw ([…]) and 3′ UTR rv ([…]) and the mouse glyceraldehyde-3-phosphate dehydrogenase (GAPDH) primers 5′ UTR fw ([…]) and 3′ UTR rv ([…]) were amplified using SYBR green PCR master mix (Thermo Fisher Scientific).
(In qPCR the cycle at which signal appears reflects the starting amount.)

In data set [6] the test system is O=c1ccc2nc3ccc(O[C@@H]4O[C@H](CO)[C@@H](O)[C@H](O)[C@H]4O)cc3oc-2c1. As to the kind of experiment: HTS / resorufin 3β-D-glucopyranoside (ResGlp) enzymatic assay of SglA. In kind it is biochemical, Aspergillus fumigatus. As to conditions: other: substrate kinetics, 0.23 pmol of SglA; pH 6.0; 37.0 °C. Here is the method:
(§1) Resorufin 3β-D-glucopyranoside (ResGlp; Sigma-Aldrich) enzyme kinetic assays were performed according to methods described by Pereira de Sa et al. ([17]). Reaction buffer contained 50 mM citric acid, 176 mM K2HPO4 (pH 6), 0.01% Tween 20, and 10 mM sodium taurocholate. The reaction was carried out in a black 96-well plate using 0.23 pmol of SglA with 100 μM ResGlp substrate. 10 μL/well of ResGlp was added to each well and the reaction was initiated by adding 20 μL enzyme (0.23 pmol). After incubation at 37°C for 30 min, the fluorescence was read at an excitation of 570 (±10) nm and an emission of 610 (±10) nm on a VersaMax microplate reader from Molecular Devices. A standard curve was prepared with serial dilutions of the free fluorophore, resorufin, in the same volume of assay buffer. All reactions were linear with respect to time and protein concentration, and the pH, temperature, and dimethyl sulfoxide (DMSO) optimal tolerance were verified.
(§2) A ChemBridge DIVERSet-CL library (ChemBridge, San Diego, CA) containing 50,000 compounds was screened to identify small molecules that inhibit Af SglA. The library was prepared in a 96-well plate format containing a cocktail of 10 compounds per well at 1 mM each in 100% DMSO. The cocktail plates were first diluted to 100 μM each (1:10 dilution in Dulbecco’s phosphate-buffered saline [DPBS]), resulting in 10% DMSO. In order to screen the compound cocktails at […] in 1% DMSO in a final reaction volume of 30 μL, an aliquot of 3 μL was added to 17 μL of buffer containing 0.23 pmol of enzyme and the reaction was started by adding 10 μL of 100 μM ResGlp. A negative control without enzyme and positive controls with and without DMSO were prepared. The plates were incubated at 37°C for 30 min. The Z′ factor was used for the assessment of the efficiency of the HTS assay for each plate. Values greater than 0.5 are considered indicators of excellent screening assay quality ([36]).

The target of data set [7] is Af SglA (Aspergillus fumigatus, UniProt Q4WXA7). Described as above. In kind it is biochemical. As to conditions: primary screen, ResGlp as the substrate, single compounds 0.25 to 4 μM. Here is the method:
as §1, §2

The test system of data set [8] is Af wild-type strain. As to the kind of experiment: Mouse model of pulmonary aspergillosis, survival. In kind it is in vivo, CBA/J mice. As for the experimental part: Male and female CBA/J mice 5 to 6 weeks old were purchased from Envigo and allowed 1 week to acclimate upon arrival. One day prior to infection, the animals were immunosuppressed with 100 mg/kg of the corticosteroid triamcinolone acetonide (Alfa Aesar) subcutaneously as previously described ([16]). On the day of the infection, the animals were initially anesthetized with a ketamine-xylazine solution (95 mg of ketamine and 5 mg of xylazine per kg of body weight) intraperitoneally and then infected with 2.5 × 10^4 Af wild-type ΔKu80pyrG+ conidia in 20 μL of PBS intranasally. One hour after the procedure, intraperitoneal treatment with hit B (5 and 20 mg/kg/day) and hit C (20 and 60 mg/kg/day) was started and continued until 30 days postinfection. Mice that survived until day 30 were euthanized by CO2 inhalation and used for organ fungal burden determinations. A similar procedure was performed for derivative B7 at a dose of 5 mg/kg/day.

The mark [9] stands for this setting: ErgGlc as the substrate, read-out: IC50.
[10] abbreviates: substrate in Triton X-100 mixed micelles, 0.11 pmol SglA, 20 min.

Where “and” joins values, the source holds several entries; their conditions need not be identical. Identical values can stand only once. Like-named read-outs stand apart in the source and are kept apart here. Where only a bound is given, the exact number is not on record here.

Af SglA, sequence (Q4WXA7 entry or part of it): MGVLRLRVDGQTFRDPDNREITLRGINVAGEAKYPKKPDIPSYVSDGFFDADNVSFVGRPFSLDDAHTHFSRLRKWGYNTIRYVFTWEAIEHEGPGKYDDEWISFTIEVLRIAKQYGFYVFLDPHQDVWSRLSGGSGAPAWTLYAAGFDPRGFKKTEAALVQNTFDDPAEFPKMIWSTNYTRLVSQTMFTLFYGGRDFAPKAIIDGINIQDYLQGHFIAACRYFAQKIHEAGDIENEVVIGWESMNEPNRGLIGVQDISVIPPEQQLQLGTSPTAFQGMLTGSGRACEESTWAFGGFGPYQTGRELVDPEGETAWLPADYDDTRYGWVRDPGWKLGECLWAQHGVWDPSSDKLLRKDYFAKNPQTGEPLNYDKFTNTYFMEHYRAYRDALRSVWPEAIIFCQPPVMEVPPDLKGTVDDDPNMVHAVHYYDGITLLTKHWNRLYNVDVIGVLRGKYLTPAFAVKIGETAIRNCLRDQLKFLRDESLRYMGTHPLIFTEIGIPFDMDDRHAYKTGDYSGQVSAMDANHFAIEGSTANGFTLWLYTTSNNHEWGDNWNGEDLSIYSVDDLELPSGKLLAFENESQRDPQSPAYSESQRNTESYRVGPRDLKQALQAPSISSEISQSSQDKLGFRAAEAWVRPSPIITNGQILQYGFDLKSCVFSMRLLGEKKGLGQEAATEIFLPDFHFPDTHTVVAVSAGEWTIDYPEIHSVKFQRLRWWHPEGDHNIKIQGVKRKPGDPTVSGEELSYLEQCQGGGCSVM
A. fumigatus SglA, sequence (Q4WXA7 entry or part of it): as above

The term IC50 denotes the concentration needed to halve the response being measured. As to `Cc1[nH]c2ccc(CNc3cc(NCCO)ncn3)cc2c1C` [Hit B2, 2-[(6-{[(2,3-dimethyl-1H-indol-5-yl)methyl]amino}pyrimidin-4-yl)amino]ethanol], the 50% inhibitory concentration (IC50) in data set [1] (setting [9]) stood at 15 µM.
Same read-out and setting: the value for `Cc1[nH]c2ccc(CNc3cc(N4CCOCC4)ncn3)cc2c1C` [Hit B5, N-[(2,3-dimethyl-1H-indol-5-yl)methyl]-6-morpholin-4-ylpyrimidin-4-amine] was 15 µM.
Same read-out and setting: the value for `CCc1[nH]c2ccc(CNc3ccnc(N)n3)cc2c1C` [Hit B3, N~4~-[(2-ethyl-3-methyl-1H-indol-5-yl)methyl]pyrimidine-2,4-diamine] was above 100 µM; that for `Cc1cc(CNc2cc(N)ncn2)c2[nH]c(C)c(C)c2c1` [Hit B1, N-[(2,3,5-trimethyl-1H-indol-7-yl)methyl]pyrimidine-4,6-diamine] was above 100 µM.
On the same count and under the same terms, the same measure for `CCc1[nH]c2ccc(CNc3cc(C)nc(NC)n3)cc2c1C` [Hit B6, N~4~-[(2-ethyl-3-methyl-1H-indol-5-yl)methyl]-N~2~,6-dimethylpyrimidine-2,4-diamine]: 9 µM.
A word on the kcat: it is the number of substrate molecules converted per active site and unit of time at saturation. Consider `CC(C)[C@@H](C)/C=C/[C@@H](C)[C@H]1CC[C@H]2C3=CC=C4C[C@@H](O[C@@H]5O[C@H](CO)[C@@H](O)[C@H](O)[C@H]5O)CC[C@]4(C)[C@H]3CC[C@]12C` [ErgGlc, ergosterol 3β-D-glucoside, reference compound], for which, in data set [1] (setting [10]), the Km is 0.57 ± 0.09 mol% and the kcat came out at 0.73 ± 0.04 s⁻¹.
In turn, `CCc1[nH]c2ccc(CNc3nc(C)cc(NC)n3)cc2c1C` [Hit B7, N~2~-[(2-ethyl-3-methyl-1H-indol-5-yl)methyl]-N~4~,6-dimethylpyrimidine-2,4-diamine] gave an IC50 in data set [1] of 3 µM. Moreover, the LD50 in data set [2] was found to be 200 µM. For the same compound, the “ErgGlc accumulation compared with hit B” value in data set [3] (100 μM) was “significantly higher accumulation of ErgGlc than treatment with hit B”. For the same compound, the “hyphal length compared with hit B” value in data set [4] (50 and 100 μM) was “shorter hyphae than hit B”. Besides, the “lung fungal burden of mice that survived 30 days” value (shortened to “lung fungal burden”) in data set [5] was “full recovery”.
With Af SglA (Aspergillus fumigatus Af293), the Km in data set [6] was 86.2 µM.
In the case of `Cc1[nH]c2ccc(CNc3cc(N)ncn3)cc2c1C` [Hit B], the IC50 in data set [7] was 1 µM and 1 to 2 µM; in data set [1], 10 µM; in data set [1] (ErgGlc as the substrate) it was “low micromolar range”. Further, the “ErgGlc accumulation versus control (untreated wild-type Af)” value in data set [3] was “differed significantly from the control”. For the same compound, the “germination and hyphal growth of Af wild-type conidia” value in data set [4] (50 and 100 μM, 37°C) was “significantly delays the germination and hyphal growth”. Besides, the survival of animals in data set [8] (20 mg/kg/day intraperitoneally, 30 days, immunosuppressed mice) is recorded as 50%. The “lung fungal burden” value in data set [5] is recorded as “no fungal burden in the lung tissue”.
Regarding `CC(Cc1ccc2c(c1)OCO2)c1c(-c2ccccc2)ncn1CCO` (centres unmarked) [Hit C], the IC50 is 2 µM and 1 to 2 µM in data set [7]; “low micromolar range” in data set [1] (ErgGlc as the substrate). The LD50 in data set [2] is given as above 200 µM. The “ErgGlc accumulation versus control (untreated wild-type Af)” value in data set [3] is reported as “differed significantly from the control”. Further, the hyphal growth result in data set [4] (all concentrations tested (1 to 100 μM)) is listed as “significantly reduced hyphal growth at all concentrations tested”. In addition, the “survival versus infected untreated mice” value in data set [8] (60 mg/kg/day intraperitoneally) is on record as “significantly prolonged mouse survival”. The compound also had a survival of animals in data set [8] (60 mg/kg/day intraperitoneally, until day 30 postinfection) of 20%. For the same compound, the “lung fungal burden” value in data set [5] is listed as “full lung clearance”.
Regarding `Cc1cc(CNc2ccnc(N)n2)c2[nH]c(C)c(C)c2c1` [Hit B4, N~4~-[(2,3,5-trimethyl-1H-indol-7-yl)methyl]pyrimidine-2,4-diamine], the IC50 in data set [1] (setting [9]) is above 100 µM.
